pIC50: −log10 of the molar value. Counter-ions that a name gives are not always drawn.

Experiment [1] relates to human T24 bladder carcinoma cells. Description: Inhibition of proliferation of T24 bladder carcinoma cells (methylene blue staining, 5 days). In kind it is cell-based. The settings on record: T-24, 120 h, 5 days incubation, read-out: Inhibition of T24 cell growth IC50. The method, then:
The carcinoma cells (1000-1500) are transinoculated into 96-depression microlitre plates and incubated overnight under the conditions mentioned. The test substance is added in serial dilutions on day 1. The plates are incubated under the conditions mentioned for 5 days. During this period of time, the control cultures pass through at least 4 cell divisions. After the incubation, the cells are fixed with 3.3% (weight/volume=w/v) aqueous glutaraldehyde solution, washed with water and dyed with 0.05% (w/v) aqueous methylene blue solution. After washing, the dye is eluted with 3% (w/v) aqueous hydrochloric acid. Thereafter, the optical density (OD) per depression, which is directly proportional to the number of cells, is measured with a photometer (Titertek multiskan) at 665 nm. The IC50 values are calculated with a computer system using the formula [formula]
The IC50 values are defined as that concentration of active ingredient at which the number of cells per depression at the end of the incubation time is only 50% of the number of cells in the control cultures.
(§1) On measurement of the IC50 for inhibition of ornithine decarboxylase (by the abovementioned method of Seely and Pegg with ODC from rat liver (obtained by the method of Hayashi and Kameji, see above)) and of the IC50 for inhibition of proliferation of T24 bladder carcinoma cells as described above, the following IC50 values can be found with the particular compounds mentioned from the examples: […]

The target of experiment [2] is T1, ornithine decarboxylase (ODC) (Rattus norvegicus, UniProt P09057).
T1 construct: from tissue; host or cells: rat liver
T1 sequence (P09057 1-461): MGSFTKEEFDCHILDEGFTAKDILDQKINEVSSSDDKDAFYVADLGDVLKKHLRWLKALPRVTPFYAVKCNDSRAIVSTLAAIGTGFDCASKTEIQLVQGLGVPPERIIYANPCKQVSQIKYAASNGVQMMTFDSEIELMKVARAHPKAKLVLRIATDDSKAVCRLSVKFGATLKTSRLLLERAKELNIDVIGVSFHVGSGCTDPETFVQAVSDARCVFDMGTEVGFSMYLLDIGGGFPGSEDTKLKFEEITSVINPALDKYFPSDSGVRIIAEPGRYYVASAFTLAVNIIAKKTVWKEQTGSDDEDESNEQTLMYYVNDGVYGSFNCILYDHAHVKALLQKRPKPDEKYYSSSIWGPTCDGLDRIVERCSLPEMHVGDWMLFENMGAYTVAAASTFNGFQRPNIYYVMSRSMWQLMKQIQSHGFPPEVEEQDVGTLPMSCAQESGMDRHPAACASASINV
Description: Inhibition of ornithine decarboxylase (method of Seely and Pegg, ODC from rat liver). It is filed as biochemical. The method, then: White-Tabor (editors): Methods in Enzymology, Volume 94: Polyamines, Academic Press, New York 1983. If ODC from rat liver is used in this test (isolation: Hayashi, S.-I. and Kameji, T., same volume, pages 154-158), IC50 values in the micromolar region, down to about 0.01 μM, preferably between about 0.01 and 10 μM, for example between about 0.02 and about 7.2 μM, are obtained for the compounds of the formula I.IC50 is the concentration of the inhibitor at which the ODC activity is 50% of that of a control without the inhibitor.
as §1

With `NO[C@H]1CCC[C@H](N)C1` (relative stereo) [Example 3, trans-3-Aminooxy-cyclohexylamine dihydrochloride], in experiment [1], the pIC50 is 4.96.
Regarding `NC[C@@H]1C[C@@H]1CON` (relative stereo) [Example 10, cis-2-Aminooxymethyl-cyclopropylmethylamine dihydrochloride], the pIC50 in experiment [2] is 6.33.
With `NO[C@H]1CC[C@H](N)CC1` [Example 1, trans-4-Aminooxy-cyclohexylamine dihydrochloride], the pIC50 is 6.66 in experiment [2] and 5.12 in experiment [1].
In experiment [2], `NOC[C@H]1C[C@@H](N)C1` [Example 6, cis-3-Aminooxymethyl-cyclobutylamine dihydrochlofide] gave a negative-log IC50 (pIC50) of 7.08.
On to `NOC[C@H]1C[C@H](N)C1` [Example 7, trans-3-Aminooxymethyl-cyclobutylamine dihydrochloride], for which the pIC50 in experiment [2] is 7.64; in experiment [1], 5.31.
`NOCC1CC(N)C1` (stereo not shown) [Example 8, 3-Aminooxymethyl-cyclobutylamine dihydrochloride]: the negative logarithm of the IC50 (pIC50) is 7.70 in experiment [2] and 5.38 in experiment [1].
For `NCC1CC(ON)C1` (stereo not shown) [Example 9, 3-Aminooxy-cyclobutylmethylamine dihydrochlofide], the pIC50 in experiment [2] was 7.28.
